Earlier results in patent US20220087961A1, “TREATMENT METHODS OF TRIPHENYL CALCILYTIC COMPOUNDS” (CALCILYTIX THERAPEUTICS, INC., priority 2020, published 2022).

Tested on: subjects with ADH1
Conditions: subjects with ADH1, sample size of 5; cited from earlier work

CC(C)(CC1Cc2ccccc2C1)NC[C@@H](O)COc1cc(CCC(=O)O)ccc1C#N [NPSP795]
dose-response on iPTH: preliminary evidence for a dose-response on iPTH
